Measurements: patent publication US20250221988A1 (Cullgen (Shanghai), Inc., priority 2022, published 2025)
Where two headings read alike, the source gives them in different places.

Tests used:
[1] = system: MV4;11 cells; assay: Cell viability assay (CellTiter-Glo) in MV4;11 cells; type: cell-based; settings: read-out: MV4
Outline: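 5000 cells/well in RPMI 1640 or DMEM with 10% FBS, treated with 8- or 12-point 3-fold compound dilutions, with or without gilteritinib (10 nM for MV4;11, 20 nM for MOLM-13). Viability by CellTiter-Glo after three days; IC50 by nonlinear least-squares regression.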

[2] = system: MOLM-13 cells; assay: Cell viability assay (CellTiter-Glo) in MOLM-13 cells; type: cell-based
[3] = Homo sapiens, MV4-11, 72 h, MV4;11 cells, compound alone, three days, 11 IC50
[4] = MV4;11 cells, with 10 nM gilteritinib, three days, 11 IC50 (nM) + 10 nM Gil
[5] = Homo sapiens, 72 h, MOLM-13 cells, compound alone, three days, read-out: MOLM-13 IC50
[6] = MOLM-13 cells, with gilteritinib, three days, read-out: MOLM-13 IC50 (nM) + 10 nM Gil

| SMILES | IC50 [1, 3] [nM] | IC50 [1, 4] [nM] | IC50 [2, 5] [nM] | IC50 [2, 6] [nM] | IC50 ([1]; Homo sapiens, MV4-11, 72 h, 11 IC50 (nM)) [nM] | IC50 ([1]; 11 IC50 (nM) + 10 nM Gil, MV4;11 cells, with 10 nM gilteritinib, three days) [nM] | IC50 ([2]; Homo sapiens, MOLM-13, 72 h, read-out: MOLM-13 IC50 (nM)) [nM] | IC50 ([2]; read-out: MOLM-13 IC50 (nM) + 10 nM Gil, MOLM-13 cells, with gilteritinib, three days) [nM] |
| --- | --- | --- | --- | --- | --- | --- | --- | --- |
| COc1ccnc2c1c(C1CC1)nn2[C@H]1C[C@H](CNc2ccc3c(c2)C(=O)N(C2CCC(=O)NC2=O)C3=O)C1 (stereo partly drawn) [GS-681, 5-(((Trans-3-(3-cyclopropyl-4-methoxy-1H-pyrazolo[3,4-b]pyridin-1-yl)cyclobutyl)methyl)amino)-2-(2,6-dioxopiperidin-3-yl)isoindoline-1,3-dione] | > 1000 | 100 to 1000 | > 1000 | 10 to 100 | – | – | – | – |
| O=C1CCC(N2C(=O)c3ccc(NC[C@H]4C[C@H](n5cc(-c6ncccc6C6CCNCC6)c(C6CC6)n5)C4)cc3C2=O)C(=O)N1 (stereo partly drawn) [GS-665, 5-(((Trans-3-(3-cyclopropyl-4-(3-(piperidin-4-yl)pyridin-2-yl)-1H-pyrazol-1-yl)cyclobutyl)methyl)amino)-2-(2,6-dioxopiperidin-3-yl)isoindoline-1,3-dione] | > 1000 | – | > 1000 | – | – | – | – | – |
| Cc1ccc2c(C3CC3)nn([C@H]3C[C@H](CNc4ccc5c(c4)C(=O)N(C4CCC(=O)NC4=O)C5=O)C3)c2n1 (stereo partly drawn) [GS-672, 5-(((Trans-3-(3-cyclopropyl-6-methyl-1H-pyrazolo[3,4-b]pyridin-1-yl)cyclobutyl)methyl)amino)-2-(2,6-dioxopiperidin-3-yl)isoindoline-1,3-dione] | > 1000 | – | > 1000 | 100 to 1000 | – | – | – | – |
| O=C1CCC(N2C(=O)c3ccc(NC[C@H]4C[C@H](n5nc(C6CC6)c6cncnc65)C4)cc3C2=O)C(=O)N1 (stereo partly drawn) [GS-663, 5-(((Trans-3-(3-cyclopropyl-1H-pyrazolo[3,4-d]pyrimidin-1-yl)cyclobutyl)methyl)amino)-2-(2,6-dioxopiperidin-3-yl)isoindoline-1,3-dione] | > 1000 | – | > 1000 | 100 to 1000 | – | – | – | – |
| CC(C)n1cnc2cnc(-c3cn([C@H]4C[C@H](CNc5ccc6c(c5)C(=O)N(C5CCC(=O)NC5=O)C6=O)C4)nc3C3CC3)cc21 (stereo partly drawn) [GS-664, 5-(((Trans-3-(3-cyclopropyl-4-(1-isopropyl-1H-imidazo[4,5-c]pyridin-6-yl)-1H-pyrazol-1-yl)cyclobutyl)methyl)amino)-2-(2,6-dioxopiperidin-3-yl)isoindoline-1,3-dione] | – | – | – | – | > 1000 | 100 to 1000 | > 1000 | 100 to 1000 |
| CN1CCC(Nc2cn([C@H]3C[C@H](CNc4ccc5c(c4)C(=O)N(C4CCC(=O)NC4=O)C5=O)C3)nc2C2CC2)CC1 (stereo partly drawn) [GS-666, 5-(((Trans-3-(3-cyclopropyl-4-((1-methylpiperidin-4-yl)amino)-1H-pyrazol-1-yl)cyclobutyl)methyl)amino)-2-(2,6-dioxopiperidin-3-yl)isoindoline-1,3-dione] | > 1000 | – | > 1000 | – | – | – | – | – |

Further lines, with some results ahead:

| IC50 [1, 3] [nM] | IC50 [1, 4] [nM] | IC50 [2, 5] [nM] | IC50 [2, 6] [nM] | SMILES | IC50 ([1]; Homo sapiens, MV4-11, 72 h, 11 IC50 (nM)) [nM] | IC50 ([1]; 11 IC50 (nM) + 10 nM Gil, MV4;11 cells, with 10 nM gilteritinib, three days) [nM] | IC50 ([2]; Homo sapiens, MOLM-13, 72 h, read-out: MOLM-13 IC50 (nM)) [nM] | IC50 ([2]; read-out: MOLM-13 IC50 (nM) + 10 nM Gil, MOLM-13 cells, with gilteritinib, three days) [nM] |
| --- | --- | --- | --- | --- | --- | --- | --- | --- |
| 100 to 1000 | 10 to 100 | 100 to 1000 | 10 to 100 | CC(C)n1ncc2nc(-c3cn([C@H]4C[C@H](CNc5ccc6c(c5)C(=O)N(C5CCC(=O)NC5=O)C6=O)C4)nc3C3CC3)ccc21 (stereo partly drawn) [GS-700, 5-(((Trans-3-(3-cyclopropyl-4-(1-isopropyl-1H-pyrazolo[4,3-b]pyridin-5-yl)-1H-pyrazol-1-yl)cyclobutyl)methyl)amino)-2-(2,6-dioxopiperidin-3-yl)isoindoline-1,3-dione] | – | – | – | – |
| 10 to 100 | 10 to 100 | 100 to 1000 | 10 to 100 | O=C1CCC(N2C(=O)c3ccc(NC[C@H]4C[C@H](n5cc(-c6ccc7[nH]ncc7n6)c(C6CC6)n5)C4)cc3C2=O)C(=O)N1 (stereo partly drawn) [GS-684, 5-(((Trans-3-(3-cyclopropyl-4-(1H-pyrazolo[4,3-b]pyridin-5-yl)-1H-pyrazol-1-yl)cyclobutyl)methyl)amino)-2-(2,6-dioxopiperidin-3-yl)isoindoline-1,3-dione] | – | – | – | – |
| > 1000 | – | > 1000 | – | O=C1CCC(N2C(=O)c3ccc(NC[C@H]4C[C@H](n5cc(-c6ncccc6C6CNC6)c(C6CC6)n5)C4)cc3C2=O)C(=O)N1 (stereo partly drawn) [GS-745, 5-(((Trans-3-(4-(3-(azetidin-3-yl)pyridin-2-yl)-3-cyclopropyl-1H-pyrazol-1-yl)cyclobutyl)methyl)amino)-2-(2,6-dioxopiperidin-3-yl)isoindoline-1,3-dione] | – | – | – | – |
